Test results from patent US20230158067A1 (priority 2020, published 2023).
“And” between values parts separate entries of the source, which are not always exact repeats. Equal values may be shown once.

Assays:
Vero cells = settings: uninfected Vero cells, MTT, 24 h
SARS-CoV2 = test: microbe, parasite or virus in culture; format: cell-based; settings: for Percentages of infection at 24 h: MOI 0.002, technical replicates
[1] = Severe acute respiratory syndrome coronavirus 2, Vero, 24 h

CCC(CC)COC(=O)[C@H](C)N[P@](=O)(OC[C@H]1O[C@@](C#N)(c2ccc3c(N)ncnn23)[C@H](O)[C@@H]1O)Oc1ccccc1 [Remdesivir]
TC90 (Vero cells): 3.4416 µM | Percentages of infection at 24 h (SARS-CoV2; 0.01 μM): 17.52% and 14.77% and 19.44% | Percentages of infection at 24 h (SARS-CoV2; 0.03 μM): 20.60% and 10.69% and 23.44% | Percentages of infection at 24 h (SARS-CoV2; 0.08 μM): 37.97% and 32.40% and 10.00% | Percentages of infection at 24 h (SARS-CoV2; 0.25 μM): 8.05% and 17.17% and 39.50% | Percentages of infection at 24 h (SARS-CoV2; 0.74 μM): 10.55% and 6.40% and 14.40% | Percentages of infection at 24 h (SARS-CoV2; 2.22 μM): 2.04% and 1.54% and 1.69% | Percentages of infection at 24 h (SARS-CoV2; 6.67 μM): 0.34% and 0.27% and 0.23% | Percentages of infection at 24 h (SARS-CoV2; 20.00 μM): 0.78% and 0.24% and 0.27% | EC50 (SARS-CoV2; [1]): 0.654 µM | EC90 (SARS-CoV2; [1]): 1690 µM
